Assay results as given in patent US20130267494A1, “1,4-OXAZEPANE DERIVATIVES” (priority 2010, published 2013).
Structures can show the parent of a compound that is named as a salt.

Legend:
[1] = target: T1, human serotonin transporter (Homo sapiens, UniProt P31645); assay: Inhibitory action on human serotonin transporter ([3H]-5-hydroxytryptamine uptake in CHO cells); format: cell-based; details: CHO, relative to inhibitory activity of 10 μM Paroxetine as 100%, read-out: inhibitory rate (%); for inhibition at 1 µM: compound 1 μM
T1 construct: expressed in transfected cells
T1 sequence (P31645 whole entry): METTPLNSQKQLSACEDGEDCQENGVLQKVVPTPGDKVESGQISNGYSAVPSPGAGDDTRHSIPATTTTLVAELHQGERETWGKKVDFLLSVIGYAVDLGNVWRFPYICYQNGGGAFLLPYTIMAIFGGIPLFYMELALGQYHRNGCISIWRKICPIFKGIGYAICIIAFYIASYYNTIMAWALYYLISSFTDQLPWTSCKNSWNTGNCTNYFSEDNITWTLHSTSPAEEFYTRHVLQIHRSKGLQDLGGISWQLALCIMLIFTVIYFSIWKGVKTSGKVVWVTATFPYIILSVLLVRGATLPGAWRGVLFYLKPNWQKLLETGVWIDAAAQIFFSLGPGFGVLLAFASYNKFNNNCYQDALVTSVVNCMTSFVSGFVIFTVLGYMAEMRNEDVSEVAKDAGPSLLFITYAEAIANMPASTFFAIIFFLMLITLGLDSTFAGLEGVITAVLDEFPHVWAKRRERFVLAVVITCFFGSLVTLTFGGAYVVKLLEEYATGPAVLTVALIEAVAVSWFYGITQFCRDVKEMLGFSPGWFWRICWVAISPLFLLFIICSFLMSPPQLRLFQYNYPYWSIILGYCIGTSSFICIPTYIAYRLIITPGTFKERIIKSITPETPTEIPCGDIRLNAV
Summary of the method: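 CHO-K1 cells stably expressing human SERT, plated overnight, took up [3H]-5-HT (diluted to 200 nM before a 1:10 addition) for 20 min in HEPES-buffered saline with glucose and 0.5% BSA; radioactivity counted by scintillation. Compounds at 10 μM or 1 μM, activity expressed relative to 10 μM paroxetine set as 100%.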

[2] = target: T2, human dopamine transporter (Homo sapiens, UniProt Q01959); assay: Inhibitory action on human dopamine transporter ([3H]-dopamine uptake in CHO cells); format: cell-based; details: CHO, relative to inhibitory activity of 100 μM Nomifensine as 100%, read-out: inhibitory rate (%); for inhibition at 1 µM: compound 1 μM
T2 construct: expressed in transfected cells
T2 sequence (Q01959 whole entry): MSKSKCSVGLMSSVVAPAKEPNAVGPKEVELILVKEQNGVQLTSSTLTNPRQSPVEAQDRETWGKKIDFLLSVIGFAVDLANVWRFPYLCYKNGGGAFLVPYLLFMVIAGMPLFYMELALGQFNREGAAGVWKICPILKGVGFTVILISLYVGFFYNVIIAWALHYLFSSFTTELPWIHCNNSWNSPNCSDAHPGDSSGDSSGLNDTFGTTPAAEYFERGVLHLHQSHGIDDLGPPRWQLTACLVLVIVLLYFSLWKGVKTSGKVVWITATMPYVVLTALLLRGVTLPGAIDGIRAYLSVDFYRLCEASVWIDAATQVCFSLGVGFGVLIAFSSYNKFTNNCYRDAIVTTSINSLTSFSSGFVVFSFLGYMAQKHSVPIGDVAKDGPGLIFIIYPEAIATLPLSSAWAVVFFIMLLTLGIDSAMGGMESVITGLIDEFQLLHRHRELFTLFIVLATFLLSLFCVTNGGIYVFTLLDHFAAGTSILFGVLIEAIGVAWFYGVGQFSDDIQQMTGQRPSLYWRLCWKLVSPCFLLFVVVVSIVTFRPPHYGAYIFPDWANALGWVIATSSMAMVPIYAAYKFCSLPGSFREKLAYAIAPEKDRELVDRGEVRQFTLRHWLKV
Summary of the method: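 CHO-K1 cells stably expressing human dopamine transporter, exposed to compound at 10 μM or 1 μM in HEPES-buffered saline with 0.5% BSA. [3H]-dopamine uptake measured over 60 min by scintillation counting. Activity expressed relative to 100 μM nomifensine as 100%.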

SMILES	inhibition at 1 µM [1] [%]	inhibition at 10 µM ([1]; compound 10 μM, CHO cells expressing human serotonin transporter) [%]	inhibition at 1 µM [2] [%]	inhibition at 10 µM ([2]; compound 10 μM) [%]
CC(=O)NC[C@H]1CNCCO[C@@H]1c1ccc(Cl)c(Cl)c1 (racemic) [Example 6, N-{[(6RS,7SR)-7-(3,4-dichlorophenyl)-1,4-oxazepan-6-yl]methyl}acetamide monohydrochloride]	84	98	33	84
O=c1[nH]c(-c2cccn(C[C@@H]3CNCCO[C@H]3c3ccc(Cl)c(Cl)c3)c2=O)no1 [Example 31, 1-{[(6S,7R)-7-(3,4-dichlorophenyl)-1,4-oxazepan-6-yl]methyl}-3-(5-oxo-4,5-dihydro-1,2,4-oxadiazol-3-yl)pyridin-2(1H)-one monohydrochloride]	95	–	33	–
CC(=O)NC[C@@H]1CNCCO[C@H]1c1ccc(Cl)c(Cl)c1 [Example 32, N-{[(6S,7R)-7-(3,4-dichlorophenyl)-1,4-oxazepan-6-yl]methyl}acetamide 0.5 fumarate]	84	–	34	–
COCC(=O)NC[C@@H]1CNCCO[C@H]1c1ccc(Cl)c(Cl)c1 [Example 33, N-{[(6S,7R)-7-(3,4-dichlorophenyl)-1,4-oxazepan-6-yl]methyl}-2-methoxyacetamide monohydrochloride]	92	–	35	–
CC(=O)N[C@@H]1CNCCO[C@H]1c1ccc(Cl)c(Cl)c1 [Example 36, N-[(6R,7S)-7-(3,4-dichlorophenyl)-1,4-oxazepan-6-yl]acetamide monofumarate]	69	–	53	–
NS(=O)(=O)N[C@@H]1CNCCO[C@H]1c1ccc(Cl)c(Cl)c1 [Example 37, N-[(6R,7S)-7-(3,4-dichlorophenyl)-1,4-oxazepan-6-yl]sulfamide monohydrochloride]	71	–	51	–
COCC(=O)NC[C@@H]1CNCCO[C@H]1c1ccc(Cl)c(F)c1 [Example 38, N-{[(6S,7R)-7-(4-chloro-3-fluorophenyl)-1,4-oxazepan-6-yl]methyl}-2-methoxyacetamide monohydrochloride]	69	–	11	–
[2H]C([2H])([2H])OCC(=O)NC[C@@H]1CNCCO[C@H]1c1ccc(Cl)c(F)c1 [Example 39, N-{[(6S,7R)-7-(4-chloro-3-fluorophenyl)-1,4-oxazepan-6-yl]methyl}-2-[(^2H3)methyloxy]acetamide monohydrochloride]	58	–	17	–
CCOCC(=O)NC[C@@H]1CNCCO[C@H]1c1ccc(Cl)c(F)c1 [Example 40, N-{[(6S,7R)-7-(4-chloro-3-fluorophenyl)-1,4-oxazepan-6-yl]methyl}-2-ethoxyacetamide monohydrochloride]	80	–	9	–
CC(C)OCC(=O)NC[C@@H]1CNCCO[C@H]1c1ccc(Cl)c(F)c1 [Example 41, N-{[(6S,7R)-7-(4-chloro-3-fluorophenyl)-1,4-oxazepan-6-yl]methyl}-2-(1-methylethoxy)acetamide monohydrochloride]	70	–	11	–
O=c1[nH]c(-c2cccn(C[C@@H]3CNCCO[C@H]3c3ccc(Cl)c(F)c3)c2=O)no1 [Example 43, 1-{[(6S,7R)-7-(4-chloro-3-fluorophenyl)-1,4-oxazepan-6-yl]methyl}-3-(5-oxo-4,5-dihydro-1,2,4-oxadiazol-3-yl)pyridin-2(1H)-one monohydrochloride]	72	–	15	–
O=C(O)c1cccn(C[C@@H]2CNCCO[C@H]2c2ccc(Cl)c(F)c2)c1=O [Example 44, 1-{[(6S,7R)-7-(4-chloro-3-fluorophenyl)-1,4-oxazepan-6-yl]methyl}-2-oxo-1,2-dihydropyridine-3-carboxylic acid monohydrochloride]	40	–	8	–
OC[C@H](O)[C@@H]1OCCNC[C@H]1c1ccc(Cl)c(Cl)c1 [Example 45, (1S)-1-[(6R,7R)-6-(3,4-dichlorophenyl)-1,4-oxazepan-7-yl]ethane-1,2-diol monohydrochloride]	36	–	52	–
O=c1[nH]c(-c2cccnc2O[C@@H]2CNCCO[C@H]2c2ccc(Cl)c(F)c2)no1 [Example 556, 3-(2-{[(6R,7S)-7-(4-chloro-3-fluorophenyl)-1,4-oxazepan-6-yl]oxy}pyridin-3-yl)-1,2,4-oxadiazol-5(4H)-one monohydrochloride]	77	–	71	–
O=c1[nH]c(-c2ccccc2O[C@@H]2CNCCO[C@H]2c2ccc(Cl)c(F)c2)no1 [Example 577, 3-(2-{[(6R, 7S)-7-(4-chloro-3-fluoro-phenyl)-1,4-oxazepan-6-yl]oxy}phenyl)-1,2,4-oxadiazol-5(4H)-one]	53	–	53	–
O=c1[nH]c(-c2ncccc2O[C@@H]2CNCCO[C@H]2c2ccc(Cl)c(F)c2)no1 [Example 584, 3-(3-{[(6R, 7S)-7-(4-chloro-3-fluorophenyl)-1,4-oxazepan-6-yl]oxy}pyridin-2-yl)-1,2,4-oxadiazol-5(4H)-one]	41	–	57	–
